Values of other authors in US8227599B2, “Adsorbents comprising anthraquinone dye-ligends for the separation of biological materials” (BASF SE, priority 2005, dated 2012).

Test system: Aspergillus terreus NADP-glutamate Dehydrogenase

Question: For `Nc1c(S(=O)(=O)[O-])cc(Nc2ccc(Nc3nc(Cl)nc(Nc4ccccc4S(=O)(=O)[O-])n3)c(S(=O)(=O)[O-])c2)c2c1C(=O)c1ccccc1C2=O.[Na+].[Na+].[Na+]` [Cibacron Blue 3GA], which “Binding of NADP-GDH to the dye” value is on record?
Answer: does not bind
